Literature values, collected in US7135437B2, “Stable liquid pesticide compositions” (Monsanto Technology LLC, priority 2000, dated 2006).

Conditions: at 20° C.

## O=C(O)CNCP(=O)([O-])O.[K+] [glyphosate potassium salt]
  solubility in pure water, glyphosate acid equivalent: about 44 % glyphosate acid equivalent (a.e.) by weight
As salt
  solubility in pure water: about 54 % by weight
